Assays:
[1] = system: HAP1 MTAP-deleted cell line; test: Viability assay, MTAP-deleted cell line; format: cell-based; settings: Homo sapiens, HAP1, viability assay, MTAP-deleted cell line; read-out: HAP1 MTAP deleted viability
Excerpt: Table 1 additionally indicates IC50 values in a viability assay for the MTAP-deleted cell line (column 10), indicating the effect of treatment with compound on cell survival.

[2] = biological target: T1, PRMT5 (Homo sapiens, UniProt O14744); test: PRMT5 biochemical IC50 assay with SAM as cofactor; settings: PRMT5, SAM as cofactor; read-out: SAM IC50
T1 construct: purchased Viva (custom protein)

[3] = biological target: T1, PRMT5; test: PRMT5 biochemical IC50 assay with MTA as cofactor; settings: PRMT5, MTA as cofactor; read-out: MTA IC50
[4] = system: HAP1 MTAP-intact cell line; test: SDMA in-cell western assay, HAP1 MTAP-intact; format: cell-based; settings: Homo sapiens, HAP1, SDMA in-cell western, HAP1 MTAP-intact; read-out: MTAP HAP1 intact IC50
In short: (§1)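 Readout: in-cell western detection of SDMA. Cells: HAP1 expressing endogenous MTAP and an MTAP-null HAP1 counterpart. Output: IC50.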

[5] = biological target: T1, PRMT5; test: PRMT5 biochemical IC50 assay with no cofactor; settings: PRMT5, no cofactor
Excerpt: Table 1 indicates IC50 values (μM) against PRMT5 for exemplary compounds in the presence of SAM as cofactor, with no cofactor, and with MTA as cofactor, respectively (columns 4-6). […] Ki values can be calculated from the IC50 values as described in the Examples section. As detailed in the Examples section, for the assay performed in the presence of SAM, IC50=Ki×1.5 (Ki=IC50/1.5).

[6] = system: HAP1 MTAP-deleted cell line; test: SDMA in-cell western assay, HAP1 MTAP-deleted; format: cell-based; settings: for IC50: Homo sapiens, HAP1, SDMA in-cell western, HAP1 MTAP-deleted; for MTAP intact/deleted ratio: IC50 ratio HAP1 MTAP-intact / HAP1 MTAP-deleted, SDMA in-cell western
In short: as §1

[7] = read-out: No Cofactor/ rel IC50
[8] = read-out: HAP 1 MTAP deleted IC50
[9] = read-out: HAP1 MTAP deleted IC50

T1 sequence (O14744 whole entry): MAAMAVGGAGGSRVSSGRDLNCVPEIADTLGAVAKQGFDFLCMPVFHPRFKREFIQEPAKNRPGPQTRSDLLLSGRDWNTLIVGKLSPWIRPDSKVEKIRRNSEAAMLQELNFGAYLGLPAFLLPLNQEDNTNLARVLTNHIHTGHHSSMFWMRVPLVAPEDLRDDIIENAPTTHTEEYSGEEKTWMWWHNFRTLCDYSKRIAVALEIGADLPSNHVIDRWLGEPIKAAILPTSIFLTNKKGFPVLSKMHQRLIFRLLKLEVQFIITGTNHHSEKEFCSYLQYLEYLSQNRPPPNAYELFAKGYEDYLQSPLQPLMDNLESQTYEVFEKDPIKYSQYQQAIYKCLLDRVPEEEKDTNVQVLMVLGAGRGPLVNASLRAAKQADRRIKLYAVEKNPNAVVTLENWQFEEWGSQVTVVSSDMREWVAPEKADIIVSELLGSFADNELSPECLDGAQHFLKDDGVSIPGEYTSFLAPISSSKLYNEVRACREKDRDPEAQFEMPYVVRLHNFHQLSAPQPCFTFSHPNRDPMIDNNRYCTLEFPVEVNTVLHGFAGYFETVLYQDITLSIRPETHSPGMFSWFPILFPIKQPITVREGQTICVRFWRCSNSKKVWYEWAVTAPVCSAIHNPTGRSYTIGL
T1 sequence (Q9BQA1 whole entry partner): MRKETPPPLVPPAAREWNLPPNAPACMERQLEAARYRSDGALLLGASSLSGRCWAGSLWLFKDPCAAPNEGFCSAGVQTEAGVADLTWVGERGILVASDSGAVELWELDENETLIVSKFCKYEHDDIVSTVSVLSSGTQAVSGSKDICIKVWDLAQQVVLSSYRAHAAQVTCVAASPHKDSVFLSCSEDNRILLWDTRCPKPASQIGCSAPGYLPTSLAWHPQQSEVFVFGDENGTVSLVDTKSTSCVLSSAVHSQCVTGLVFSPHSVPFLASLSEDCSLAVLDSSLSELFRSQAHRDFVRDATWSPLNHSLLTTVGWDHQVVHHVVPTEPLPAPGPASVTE

SMILES | IC50 [1] | IC50 [2] | IC50 [3] | IC50 [4] | IC50 [5, 7] | IC50 [6, 8] | MTAP intact/deleted ratio [6] | IC50 ([5]; read-out: No Cofactor/rel IC50) | IC50 [6, 9]
NC(=O)c1cc(NC(=O)C(=O)N2CCCCC2c2ccccc2)cnc1N (centres unmarked) [Compound 126, 2-Amino-5-[[2-oxo-2-(2-phenyl-1-piperidyl)acetyl]amino]pyridine-3-carboxamide] | > 10 µM | 0.05 to 0.5 µM | 0.05 to 0.5 µM | > 1 µM | > 0.5 µM | > 1 µM | B (an IC50 ratio greater than or equal to 3 fold but lower than 10 fold) | – | –
Cc1cc(NC(=O)C(=O)N2CCCCC2c2cccc3scnc23)cnc1N (centres unmarked) [Compound 129, N-(6-Amino-5-methyl-3-pyridyl)-2-[2-(1,3-benzothiazol-4-yl)-1-piperidyl]-2-oxo-acetamide] | > 10 µM | 0.05 to 0.5 µM | 0.05 to 0.5 µM | > 1 µM | > 0.5 µM | > 1 µM | B (an IC50 ratio greater than or equal to 3 fold but lower than 10 fold) | – | –
Cc1cc(NC(=O)C(=O)N2CCCCC2c2cccc3c2ncn3C)cnc1N (centres unmarked) [Compound 132, N-(6-Amino-5-methyl-3-pyridyl)-2-[2-(1-methylbenzimidazol-4-yl)-1-piperidyl]-2-oxo-acetamide] | > 10 µM | > 0.5 µM | 0.05 to 0.5 µM | > 1 µM | > 0.5 µM | > 1 µM | B (an IC50 ratio greater than or equal to 3 fold but lower than 10 fold) | – | –
O=C(Nc1cncc(CO)c1)C(=O)N1CCCCC1c1ccccc1 (centres unmarked) [Compound 136, N-(5-(hydroxymethyl)pyridin-3-yl)-2-oxo-2-(2-phenylpiperidin-1-yl)acetamide] | > 10 µM | > 0.5 µM | > 0.5 µM | > 1 µM | > 0.5 µM | > 1 µM | C (an IC50 ratio of less than 3 fold) | – | –
COc1ncc(NC(=O)C(=O)N2CCCCC2c2ccccc2)cc1C(N)=O (centres unmarked) [Compound 138, 2-methoxy-5-(2-oxo-2-(2-phenylpiperidin-1-yl)acetamido)nicotinamide] | > 10 µM | 0.05 to 0.5 µM | < 0.05 µM | > 1 µM | > 0.5 µM | 0.1 to 1 µM | A (an IC50 ratio greater than or equal to 10 fold) | – | –
Cc1cc(NC(=O)C(=O)N2CCCCC2c2cccc3ocnc23)cnc1N (centres unmarked) [Compound 140, N-(6-Amino-5-methyl-3-pyridyl)-2-[2-(1,3-benzoxazol-4-yl)-1-piperidyl]-2-oxo-acetamide] | > 10 µM | > 0.5 µM | > 0.5 µM | > 1 µM | > 0.5 µM | 0.1 to 1 µM | A (an IC50 ratio greater than or equal to 10 fold) | – | –
Cc1cc(NC(=O)C(=O)N2CCCCC2c2cccc3[nH]cnc23)cnc1N (centres unmarked) [Compound 142, N-(6-Amino-5-methyl-3-pyridyl)-2-[2-(1H-benzimidazol-4-yl)-1-piperidyl]-2-oxo-acetamide] | > 10 µM | 0.05 to 0.5 µM | 0.05 to 0.5 µM | > 1 µM | > 0.5 µM | > 1 µM | B (an IC50 ratio greater than or equal to 3 fold but lower than 10 fold) | – | –
CC1CCC2CCCCC2N1C(=O)C(=O)Nc1cncc(C(N)=O)c1 (centres unmarked) [Compound 144, 5-[2-(2-Methyl-decahydroquinolin-1-yl)-2-oxoacetamido]pyridine-3-carboxamide] | > 10 µM | 0.05 to 0.5 µM | < 0.05 µM | > 1 µM | 0.05 to 0.5 µM | 0.1 to 1 µM | A (an IC50 ratio greater than or equal to 10 fold) | – | –
O=Cc1cncc(NC(=O)C(=O)N2CCCCC2c2ccccc2)c1 (centres unmarked) [Compound 147, N-(5-formylpyridin-3-yl)-2-oxo-2-(2-phenylpiperidin-1-yl)acetamide] | > 10 µM | > 0.5 µM | 0.05 to 0.5 µM | > 1 µM | > 0.5 µM | > 1 µM | C (an IC50 ratio of less than 3 fold) | – | –
NC(=O)c1cncc(NC(=O)C(=O)N2CCC3(CC2)OCC2CC23)c1 (centres unmarked) [Compound 149, 5-(2-{3-Oxaspiro[bicyclo[3.1.0]hexane-2,4′-piperidine]-1′-yl}-2-oxoacetamido)pyridine-3-carboxamide] | > 10 µM | 0.05 to 0.5 µM | 0.05 to 0.5 µM | > 1 µM | > 0.5 µM | > 1 µM | C (an IC50 ratio of less than 3 fold) | – | –
Cc1cnc(N)c(NC(=O)C(=O)N2CCCCC2c2ccccc2)c1 (centres unmarked) [Compound 160, N-(2-amino-5-methylpyridin-3-yl)-2-oxo-2-(2-phenylpiperidin-1-yl)acetamide] | > 10 µM | > 0.5 µM | > 0.5 µM | > 1 µM | > 0.5 µM | > 1 µM | C (an IC50 ratio of less than 3 fold) | – | –
NC(=O)c1cncc(NC(=O)C(=O)N2CCCC3(CCSCC3)C2)c1 [Compound 166, 5-(2-Oxo-2-{9-thia-2-azaspiro[5.5]undecan-2-yl}acetamido)pyridine-3-carboxamide] | > 10 µM | > 0.5 µM | 0.05 to 0.5 µM | > 1 µM | > 0.5 µM | > 1 µM | C (an IC50 ratio of less than 3 fold) | – | –
NC(=O)c1cncc(NC(=O)C(=O)N2CCCCC2C2CCC(F)(F)CC2)c1 (centres unmarked) [Compound 170, 5-[[2-[2-(4,4-difluorocyclohexyl)-1-piperidyl]-2-oxo-acetyl]amino]pyridine-3-carboxamide] | > 10 µM | 0.05 to 0.5 µM | 0.05 to 0.5 µM | > 1 µM | > 0.5 µM | 0.1 to 1 µM | A (an IC50 ratio greater than or equal to 10 fold) | – | –
Cc1cc(NC(=O)C(=O)N2CCCCC2C2CCC2)cnc1N (centres unmarked) [Compound 182, N-(6-amino-5-methyl-3-pyridyl)-2-(2-cyclobutyl-1-piperidyl)-2-oxo-acetamide] | > 10 µM | 0.05 to 0.5 µM | < 0.05 µM | > 1 µM | – | – | A (an IC50 ratio greater than or equal to 10 fold) | 0.05 to 0.5 µM | 0.1 to 1 µM
CC1CC(C)C(c2ccccc2)N(C(=O)C(=O)Nc2cncc(C(N)=O)c2)C1 (centres unmarked) [Compound 183, 5-(2-(3,5-dimethyl-2-phenylpiperidin-1-yl)-2-oxoacetamido)nicotinamide] | > 10 µM | > 0.5 µM | > 0.5 µM | > 1 µM | – | – | C (an IC50 ratio of less than 3 fold) | > 0.5 µM | > 1 µM
Cc1cncc(NC(=O)C(=O)N2CCCCC2c2ccccc2)c1N (centres unmarked) [Compound 184, N-(4-amino-5-methylpyridin-3-yl)-2-oxo-2-(2-phenylpiperidin-1-yl)acetamide] | > 10 µM | > 0.5 µM | 0.05 to 0.5 µM | > 1 µM | – | – | C (an IC50 ratio of less than 3 fold) | > 0.5 µM | > 1 µM
Cc1cc(NC(=O)C(=O)N2CCCCC2C2CCC(F)(F)CC2)cnc1N (centres unmarked) [Compound 186, N-(6-amino-5-methyl-3-pyridyl)-2-[2-(4,4-difluorocyclohexyl)-1-piperidyl]-2-oxo-acetamide] | > 10 µM | 0.05 to 0.5 µM | 0.05 to 0.5 µM | > 1 µM | – | – | A (an IC50 ratio greater than or equal to 10 fold) | 0.05 to 0.5 µM | 0.1 to 1 µM

— patent US11999727B2 (Tango Therapeutics, Inc., priority 2020, dated 2024)
